Measurements as given in US20070049593A1 (priority 2004, published 2007).
Counter-ions that a name gives are not always drawn.

Target: T1, HCV polymerase (Hepatitis C virus genotype 1b, UniProt P26663)
T1 construct: a region encoding NS5B (J Virol 1991 March, 65(3), 1105-13, 544 amino acids after deletion of 47 amino acids on the C-terminal); 6xHis (C); made in house; host or cells: Escherichia coli
Experiment: biochemical
Design: species or system HCV BK strain
Summary of the method: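 His-tagged NS5B (BK strain, 47-aa C-terminal deletion, E. coli-expressed) at 0.5 μg/ml copied 5 μg/ml run-off RNA bearing the HCV 3′ UTR with 2 μM UTP plus [3H]UTP, 50 μM ATP/GTP, in pH 7.5 Tris with 5 mM MgCl2, 25 °C, 90 min. TCA-precipitated RNA was counted and IC50 calculated.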

T1 sequence (P26663 2420-2963): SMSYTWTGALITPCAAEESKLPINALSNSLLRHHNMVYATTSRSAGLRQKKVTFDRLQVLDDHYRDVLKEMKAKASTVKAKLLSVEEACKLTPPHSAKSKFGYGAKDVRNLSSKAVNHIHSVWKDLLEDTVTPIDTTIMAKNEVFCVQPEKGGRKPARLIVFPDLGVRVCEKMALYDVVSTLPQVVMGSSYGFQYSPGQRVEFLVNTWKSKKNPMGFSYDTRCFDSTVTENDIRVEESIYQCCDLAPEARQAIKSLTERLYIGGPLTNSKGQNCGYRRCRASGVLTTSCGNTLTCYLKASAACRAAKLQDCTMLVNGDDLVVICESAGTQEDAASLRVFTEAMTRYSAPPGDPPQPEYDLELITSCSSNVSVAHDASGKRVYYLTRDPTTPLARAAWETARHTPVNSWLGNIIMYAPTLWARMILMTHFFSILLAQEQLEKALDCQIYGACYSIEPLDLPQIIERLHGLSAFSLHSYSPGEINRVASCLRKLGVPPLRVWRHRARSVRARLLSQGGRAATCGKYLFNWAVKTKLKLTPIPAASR

| Structure (SMILES) | IC50 [nM] |
| --- | --- |
| COc1ccc2c(c1)OCCn1c-2c(C2CCCCC2)c2ccc(C(=O)N[C@@H](Cc3ccc(OC(C)=O)cc3)c3noc(=O)[nH]3)cc21 [Example 2-430, 4-[(S)-2-[(12-cyclohexyl-3-methoxy-6,7-dihydro-5-oxa-7a-azadibenzo[a,e]azulene-9-carbonyl)amino]-2-(5-oxo-4,5-dihydro-1,2,4-oxadiazol-3-yl)ethyl]phenyl acetate] | < 100 |
| COc1ccc2c(c1)OCCn1c-2c(C2CCCCC2)c2ccc(C(=O)N[C@@H](Cc3ccc(OC(C)=O)cc3)C3=NC(C)(C)C(=O)O3)cc21 [Example 2-431, 4-[(S)-2-[(12-cyclohexyl-3-methoxy-6,7-dihydro-5-oxa-7a-azadibenzo[a,e]azulene-9-carbonyl)amino]-2-(4,4-dimethyl-5-oxo-4,5-dihydrooxazol-2-yl)ethyl]phenyl acetate] | < 100 |
| COc1ccc2c(c1)OCCn1c-2c(C2CCCCC2)c2ccc(C(=O)NC(C)(C)c3nc4ccccc4n3CCN3CCOCC3)cc21 [Example 2-432, N-(1-methyl-1-{1-[2-(morpholin-4-yl)ethyl]-1H-benzimidazol-2-yl}ethyl)-12-cyclohexyl-3-methoxy-6,7-dihydro-5-oxa-7a-azadibenzo[a,e]azulene-9-carboxamide] | < 100 |
| COc1ccc2c(c1)OCCn1c-2c(C2CCCCC2)c2ccc(C(=O)NC(C)(C)c3nc4ccccc4n3CCO)cc21 [Example 2-433, N-{1-[1-(2-hydroxyethyl)-1H-benzimidazol-2-yl]-1-methylethyl}-12-cyclohexyl-3-methoxy-6,7-dihydro-5-oxa-7a-azadibenzo[a,e]azulene-9-carboxamide] | < 100 |
| COCCn1c(C(C)(C)NC(=O)c2ccc3c(C4CCCCC4)c4n(c3c2)CCOc2cc(OC)ccc2-4)nc2ccccc21 [Example 2-434, N-{1-[1-(2-methoxyethyl)-1H-benzimidazol-2-yl]-1-methylethyl}-12-cyclohexyl-3-methoxy-6,7-dihydro-5-oxa-7a-azadibenzo[a,e]azulene-9-carboxamide] | < 100 |
| CCOC(=O)[C@H](Cc1ccc(O)cc1)NC(=O)c1ccc2c(C3CCCCC3)c3n(c2c1)CCOc1cc(OC)ccc1-3 [Example 2-435, ethyl (S)-2-[(12-cyclohexyl-3-methoxy-6,7-dihydro-5-oxa-7a-azadibenzo[a,e]azulene-9-carbonyl)amino]-3-(4-hydroxyphenyl)propionate] | < 100 |
| COc1ccc2c(c1)OCCn1c-2c(C2CCCCC2)c2ccc(C(=O)NC(Cc3ccc(O)cc3)C(C)C)cc21 (stereo not shown) [Example 2-436, N-[1-(4-hydroxybenzyl)-2-methylpropyl]-12-cyclohexyl-3-methoxy-6,7-dihydro-5-oxa-7a-azadibenzo[a,e]azulene-9-carboxamide] | < 100 |
| COCCOc1cc2[nH]c(C3(NC(=O)c4ccc5c(C6CCCCC6)c6n(c5c4)CCOc4cc(OC)ccc4-6)CCC3)nc2cc1C(=O)O [Example 2-437, 2-{1-[(12-cyclohexyl-3-methoxy-6,7-dihydro-5-oxa-7a-azadibenzo[a,e]azulene-9-carbonyl)amino]cyclobutyl}-6-(2-methoxyethoxy)-1H-benzimidazole-5-carboxylic acid] | < 100 |
| COCCOc1cc2[nH]c(C3(NC(=O)c4ccc5c(C6CCCCC6)c6n(c5c4)CCOc4cc(OC)ccc4-6)CCC3)nc2cc1CO [Example 2-438, N-{1-[5-hydroxymethyl-6-(2-methoxyethoxy)-1H-benzimidazol-2-yl]cyclobutyl}-12-cyclohexyl-3-methoxy-6,7-dihydro-5-oxa-7a-azadibenzo[a,e]azulene-9-carboxamide] | < 100 |
| COc1ccc2c(c1)OCCn1c-2c(C2CCCCC2)c2ccc(C(=O)NC3(c4nc5ccc(O)cc5[nH]4)CCC3)cc21 [Example 2-439, N-[1-(6-hydroxy-1H-benzimidazol-2-yl)cyclobutyl]-12-cyclohexyl-3-methoxy-6,7-dihydro-5-oxa-7a-azadibenzo[a,e]azulene-9-carboxamide] | < 100 |
| COc1ccc2c(c1)OCCn1c-2c(C2CCCCC2)c2ccc(C(=O)N[C@@H](Cc3c[nH]c4ccc(OCC(=O)O)cc34)c3csc(C)n3)cc21 [Example 2-440, {3-[(S)-2-[(12-cyclohexyl-3-methoxy-6,7-dihydro-5-oxa-7a-azadibenzo[a,e]azulene-9-carbonyl)amino]-2-(2-methylthiazol-4-yl)ethyl]-1H-indol-5-yloxy}acetic acid] | < 100 |
| COc1ccc2c(c1)OCCn1c-2c(C2CCCCC2)c2ccc(C(=O)N[C@H](C#N)Cc3ccc(O)cc3)cc21 [Example 2-441, N—[(S)-cyano-(4-hydroxybenzyl)-methyl]-12-cyclohexyl-3-methoxy-6,7-dihydro-5-oxa-7a-azadibenzo[a,e]azulene-9-carboxamide] | < 100 |
| COC(=O)C(N)Cc1ccc(C(C)(C)NC(=O)c2ccc3c(C4CCCCC4)c4n(c3c2)CCOc2cc(OC)ccc2-4)cc1 (stereo not shown) [Example 2-442, methyl 2-amino-3-(4-{1-[(12-cyclohexyl-3-methoxy-6,7-dihydro-5-oxa-7a-azadibenzo[a,e]azulene-9-carbonyl)amino]-1-methylethyl}phenyl)propionate monohydrochloride] | < 100 |
| COc1ccc2c(c1)OCCn1c-2c(C2CCCCC2)c2ccc(C(=O)NC(C)(C)c3ccc(CC(NC(C)=O)C(=O)O)cc3)cc21 (stereo not shown) [Example 2-443, 2-acetylamino-3-(4-{1-[(12-cyclohexyl-3-methoxy-6,7-dihydro-5-oxa-7a-azadibenzo[a,e]azulene-9-carbonyl)amino]-1-methylethyl}phenyl)propionic acid] | < 100 |
| COc1ccc2c(c1)OCCn1c-2c(C2CCCCC2)c2ccc(C(=O)NC(C)(C)c3ccc(CC(N)C(=O)O)cc3)cc21 (stereo not shown) [Example 2-444, 2-amino-3-(4-{1-[(12-cyclohexyl-3-methoxy-6,7-dihydro-5-oxa-7a-azadibenzo[a,e]azulene-9-carbonyl)amino]-1-methylethyl}phenyl)propionic acid] | < 100 |
| COc1ccc2c(c1)OCCn1c-2c(C2CCCCC2)c2ccc(C(=O)NC3(c4nc5ccc(C(C)(C)C(=O)O)cc5[nH]4)CCC3)cc21 [Example 2-445, 2-(2-{1-[(12-cyclohexyl-3-methoxy-6,7-dihydro-5-oxa-7a-azadibenzo[a,e]azulene-9-carbonyl)amino]cyclobutyl}-3H-benzimidazol-5-yl)-2-methylpropionic acid] | < 100 |
| CCOc1ccc2c(c1)OCCn1c-2c(C2CCCCC2)c2ccc(C(=O)NC3(C(=O)Nc4ccc(/C=C/C(=O)O)cc4)CCC3)cc21 [Example 2-446, (E)-3-[4-({1-[(12-cyclohexyl-3-ethoxy-6,7-dihydro-5-oxa-7a-azadibenzo[a,e]azulene-9-carbonyl)amino]cyclobutanecarbonyl}amino)phenyl]acrylic acid] | < 100 |
| COc1ccc2c(c1)OCCn1c-2c(C2CCCCC2)c2ccc(C(=O)NC3(c4nc5cc(C(C)(C)O)c(OC)cc5[nH]4)CCC3)cc21 [Example 2-447, N-{1-[5-(1-hydroxy-1-methylethyl)-6-methoxy-1H-benzimidazol-2-yl]cyclobutyl}-12-cyclohexyl-3-methoxy-6,7-dihydro-5-oxa-7a-azadibenzo[a,e]azulene-9-carboxamide] | < 100 |
| COc1ccc2c(c1)OCCn1c-2c(C2CCCCC2)c2ccc(C(=O)NC3(C(=O)Nc4ccc5nc[nH]c5c4)CCC3)cc21 [Example 2-448, N-[1-(3H-benzimidazol-5-ylcarbamoyl)cyclobutyl]-12-cyclohexyl-3-methoxy-6,7-dihydro-5-oxa-7a-azadibenzo[a,e]azulene-9-carboxamide] | < 100 |
